In the experiment the test system is MV-4-11 cells. Kind of experiment: Gene expression microarray analysis (Affymetrix PrimeView) and GSEA. Also on record: RFU PODN (11730768_x_at) / Fold change /veh PODN (11730768_x_at) / RFU LINC00158 (11744669_a_at) / Fold change /veh LINC00158 (11744669_a_at) / RFU DUSP10 (11751237_a_at) / Fold change /veh DUSP10 (11751237_a_at) / RFU ID3 (11757404_x_at) / Fold change /veh ID3 (11757404_x_at) / RFU PLEKHG5 (11737974_s_at) / Fold change /veh PLEKHG5 (11737974_s_at) / RFU LRRC4B (11730491_at) / Fold change /veh LRRC4B (11730491_at) / RFU GIMAP4 (11747438_a_at) / Fold change /veh GIMAP4 (11747438_a_at) / RFU KRT8 (11758183_x_at) / Fold change /veh KRT8 (11758183_x_at) / RFU CNN1 (11734310_a_at) / Fold change /veh CNN1 (11734310_a_at) / RFU VPS37D (11726825_at) / Fold change /veh VPS37D (11726825_at) / RFU C10orf10 (11716522_x_at) / Fold change /veh C10orf10 (11716522_x_at) / RFU KIR2DL2 /// KIR2DL4 /// KIR2DL5A /// KIR2DL5B /// KIR2DS1 /// KIR2DS2 /// KIR2DS3 /// KIR2DS4 /// KIR3DL3 /// KIR3DL3 /// KIR3DS1 (11738374_at) / Fold change /veh KIR2DL2 /// KIR2DL4 /// KIR2DL5A /// KIR2DL5B /// KIR2DS1 /// KIR2DS2 /// KIR2DS3 /// KIR2DS4 /// KIR3DL3 /// KIR3DL3 /// KIR3DS1 (11738374_at) / RFU C1QL1 (11718748_at) / Fold change /veh C1QL1 (11718748_at) / RFU TMPRSS4 (11747572_a_at) / Fold change /veh TMPRSS4 (11747572_a_at) / RFU HAMP (11756126_x_at) / Fold change /veh HAMP (11756126_x_at) / RFU RNFT2 (11725882_a_at) / Fold change /veh RNFT2 (11725882_a_at) / RFU NR4A2 (11747474_a_at) / Fold change /veh NR4A2 (11747474_a_at) / RFU ABCC12 (11746883_a_at) / Fold change /veh ABCC12 (11746883_a_at) / RFU TMEM136 (11760407_x_at) / Fold change /veh TMEM136 (11760407_x_at) / RFU CLDN22 /// WWC2 (11732394_at) / Fold change /veh CLDN22 /// WWC2 (11732394_at) / RFU HLA-DPB1 (11760878_x_at) / Fold change /veh HLA-DPB1 (11760878_x_at) / RFU SPINT1 (11716480_a_at) / Fold change /veh SPINT1 (11716480_a_at) / RFU GAP43 (11754022_s_at) / Fold change /veh GAP43 (11754022_s_at) / RFU A4GNT (11735810_at) / Fold change /veh A4GNT (11735810_at) / RFU PRB3 (11715151_x_at) / Fold change /veh PRB3 (11715151_x_at) / RFU TUBB4B (11761932_at) / Fold change /veh TUBB4B (11761932_at) / RFU CAPN14 (11732068_a_at) / Fold change /veh CAPN14 (11732068_a_at) / RFU TMCC2 (11721928_a_at) / Fold change /veh TMCC2 (11721928_a_at) / RFU IRGQ (11745062_a_at) / Fold change /veh IRGQ (11745062_a_at) / RFU FAM174B (11720279_a_at) / Fold change /veh FAM174B (11720279_a_at) / RFU TMPRSS4 (11748680_a_at) / Fold change /veh TMPRSS4 (11748680_a_at) / RFU FAM212B (11763350_a_at) / Fold change /veh FAM212B (11763350_a_at) / RFU PLEKHG5 (11743358_a_at) / Fold change /veh PLEKHG5 (11743358_a_at) / RFU ZSCAN30 (11745921_a_at) / Fold change /veh ZSCAN30 (11745921_a_at) / RFU CMKLR1 (11741424_a_at) / Fold change /veh CMKLR1 (11741424_a_at) / RFU LOC101060620 /// MAPK8IP1 (11723275_at) / Fold change /veh LOC101060620 /// MAPK8IP1 (11723275_at) / RFU SPTSSB (11747773_x_at) / Fold change /veh SPTSSB (11747773_x_at) / RFU PRSS12 (11739890_at) / Fold change /veh PRSS12 (11739890_at) / RFU BIN1 (11741810_x_at) / Fold change /veh BIN1 (11741810_x_at) / RFU WNT11 (11732464_a_at) / Fold change /veh WNT11 (11732464_a_at) / RFU C10orf10 (11716521_a_at) / Fold change /veh C10orf10 (11716521_a_at) / RFU C5orf56 (11738089_at) / Fold change /veh C5orf56 (11738089_at) / RFU CYB561 (11721691_x_at) / Fold change /veh CYB561 (11721691_x_at) / RFU ANKRD19P (11752326_a_at) / Fold change /veh ANKRD19P (11752326_a_at) / RFU OR2T12 /// OR2T33 /// OR2T8 (11738714_s_at) / Fold change /veh OR2T12 /// OR2T33 /// OR2T8 (11738714_s_at) / RFU VCAN (11748164_a_at) / Fold change /veh VCAN (11748164_a_at) / RFU JSRP1 (11732532_at) / Fold change /veh JSRP1 (11732532_at) / RFU KRTAP10-11 (11738290_x_at) / Fold change /veh KRTAP10-11 (11738290_x_at) / RFU MYO3A (11730013_a_at) / Fold change /veh MYO3A (11730013_a_at) / RFU EBF3 (11725865_a_at) / Fold change /veh EBF3 (11725865_a_at) / RFU CAMK2N1 (11719241_x_at) / Fold change /veh CAMK2N1 (11719241_x_at) / RFU C5orf56 (11738088_a_at) / Fold change /veh C5orf56 (11738088_a_at) / RFU OLFML3 (11715873_a_at) / Fold change /veh OLFML3 (11715873_a_at) / RFU LOC100653217 /// NTM (11731650_a_at) / Fold change /veh LOC100653217 /// NTM (11731650_a_at) / RFU MAPK11 (11762145_a_at) / Fold change /veh MAPK11 (11762145_a_at) / RFU FIZ1 (11724087_x_at) / Fold change /veh FIZ1 (11724087_x_at) / RFU OASL (11726364_x_at) / Fold change /veh OASL (11726364_x_at) / RFU SOX15 (11748057_x_at) / Fold change /veh SOX15 (11748057_x_at) / RFU CD79A (11719716_a_at) / Fold change /veh CD79A (11719716_a_at) / RFU HIST1H1D (11736915_at) / Fold change /veh HIST1H1D (11736915_at) / RFU CASKIN2 (11723855_a_at) / Fold change /veh CASKIN2 (11723855_a_at) / RFU LOC730098 (11760151_x_at) / Fold change /veh LOC730098 (11760151_x_at) / RFU OR4N2 (11742367_at) / Fold change /veh OR4N2 (11742367_at) / RFU PRRT2 (11749266_a_at) / Fold change /veh PRRT2 (11749266_a_at) / RFU SNX32 (11753110_a_at) / Fold change /veh SNX32 (11753110_a_at) / RFU CDHR5 (11726645_a_at) / Fold change /veh CDHR5 (11726645_a_at) / RFU RCAN1 (11760418_a_at) / Fold change /veh RCAN1 (11760418_a_at) / RFU FAM167A (11723789_a_at) / Fold change /veh FAM167A (11723789_a_at) / RFU FAM26E (11764081_at) / Fold change /veh FAM26E (11764081_at) / RFU ISYNA1 (11749810_s_at) / Fold change /veh ISYNA1 (11749810_s_at) / RFU ACY1 (11761880_at) / Fold change /veh ACY1 (11761880_at) / RFU 11764098_at / Fold change /veh 11764098_at / RFU SAMD14 (11745864_x_at) / Fold change /veh SAMD14 (11745864_x_at) / RFU NPB (11741838_a_at) / Fold change /veh NPB (11741838_a_at) / RFU TMPRSS6 (11731388_a_at) / Fold change /veh TMPRSS6 (11731388_a_at) / RFU KRTAP10-2 (11738614_at) / Fold change /veh KRTAP10-2 (11738614_at) / RFU ARHGAP8 /// PRR5-ARHGAP8 (11727945_x_at) / Fold change /veh ARHGAP8 /// PRR5-ARHGAP8 (11727945_x_at) / RFU KRTAP5-7 /// NADSYN1 (11734609_at) / Fold change /veh KRTAP5-7 /// NADSYN1 (11734609_at) / RFU RASL12 (11751679_a_at) / Fold change /veh RASL12 (11751679_a_at) / RFU CDKN2B (11736163_a_at) / Fold change /veh CDKN2B (11736163_a_at) / RFU PRF1 (11729649_at) / Fold change /veh PRF1 (11729649_at) / RFU, ZNF638 /// ZNF638-IT1 / Fold change vs veh, ZNF638 /// ZNF638-IT1 / RFU, PANK3 / Fold change vs veh, PANK3 / RFU, SH3YL1 / Fold change vs veh, SH3YL1 / RFU, ZEB2 / Fold change vs veh, ZEB2 / RFU, NRIP1 / Fold change vs veh, NRIP1 / RFU, PTTG1IP / Fold change vs veh, PTTG1IP / RFU, CAPN2 / Fold change vs veh, CAPN2 / RFU, MED14 / Fold change vs veh, MED14 / RFU, SNORA58 / Fold change vs veh, SNORA58 / RFU, C1orf63 / Fold change vs veh, C1orf63 / RFU, LRRFIP1 / Fold change vs veh, LRRFIP1 / RFU, NDUFAF7 / Fold change vs veh, NDUFAF7 / RFU, SLC12A2 / Fold change vs veh, SLC12A2 / RFU, IBTK / Fold change vs veh, IBTK / RFU, ESF1 / Fold change vs veh, ESF1 / Fold change vs veh, TMEM50B / RFU, TAOK1 / Fold change vs veh, TAOK1 / RFU, ACBD3 / Fold change vs veh, ACBD3 / RFU, TMA16 / Fold change vs veh, TMA16 / RFU, RWDD3 / Fold change vs veh, RWDD3 / RFU, BCAT1 / Fold change vs veh, BCAT1 / RFU, EDEM3 / Fold change vs veh, EDEM3 / RFU, TMEM33 / Fold change vs veh, TMEM33 / RFU, WDR75 / Fold change vs veh, WDR75 / RFU, AHCTF1 / Fold change vs veh, AHCTF1 / RFU, TFRC / Fold change vs veh, TFRC / RFU, ZDHHC17 / Fold change vs veh, ZDHHC17 / RFU, NOM1 / Fold change vs veh, NOM1 / RFU, ARL8B / Fold change vs veh, ARL8B / RFU, ZBTB11 / Fold change vs veh, ZBTB11 / RFU, TAMM41 / Fold change vs veh, TAMM41 / RFU, KIAA1704 /// LOC100996395 / Fold change vs veh, KIAA1704 /// LOC100996395 / RFU, ING1 / Fold change vs veh, ING1 / RFU, TRMT61B / Fold change vs veh, TRMT61B / RFU, FUBP3 / Fold change vs veh, FUBP3 / RFU, TP53 / Fold change vs veh, TP53 / RFU, TNKS2 / Fold change vs veh, TNKS2 / RFU, ZFP14 / Fold change vs veh, ZFP14 / RFU, ACTR2 / Fold change vs veh, ACTR2 / RFU, PPP3R1 / Fold change vs veh, PPP3R1 / RFU, PIK3R1 / Fold change vs veh, PIK3R1 / RFU, HNRNPA1 / Fold change vs veh, HNRNPA1 / RFU, RNF170 / Fold change vs veh, RNF170 / RFU, ZNF28 / Fold change vs veh, ZNF28 / RFU, RNGTT / Fold change vs veh, RNGTT / RFU, OGT / Fold change vs veh, OGT / RFU, BRD1 / Fold change vs veh, BRD1 / RFU, MARS / Fold change vs veh, MARS / RFU, ZNF655 / Fold change vs veh, ZNF655 / RFU, FAHD1 / Fold change vs veh, FAHD1 / RFU, BDP1 / Fold change vs veh, BDP1 / RFU, LRRCC1 / Fold change vs veh, LRRCC1 / RFU, ARID1A / Fold change vs veh, ARID1A / RFU, ZNF146 / Fold change vs veh, ZNF146 / RFU, ZNF330 / Fold change vs veh, ZNF330 / RFU, GPN3 / Fold change vs veh, GPN3 / RFU, C9orf123 / Fold change vs veh, C9orf123 / RFU, N4BP2L2 / Fold change vs veh, N4BP2L2 / RFU, ARFIP1 / Fold change vs veh, ARFIP1 / RFU, FAM179B / Fold change vs veh, FAM179B / RFU, BCL10 / Fold change vs veh, BCL10 / RFU, UHRF1BP1L / Fold change vs veh, UHRF1BP1L / RFU, BET1 / Fold change vs veh, BET1 / RFU, CNOT2 / Fold change vs veh, CNOT2 / RFU, ZNF268 / Fold change vs veh, ZNF268 / Fold change vs veh, ZNF507 / RFU, DGCR2 / Fold change vs veh, DGCR2 / RFU, WDSUB1 / Fold change vs veh, WDSUB1 / Fold change vs veh, HSP90B1 /// MIR3652 / RFU, ADSS / Fold change vs veh, ADSS / RFU, GK / Fold change vs veh, GK / RFU, ZNF148 / Fold change vs veh, ZNF148 / RFU, TAF9 / Fold change vs veh, TAF9 / RFU, SLC1A5 / Fold change vs veh, SLC1A5 / RFU, SLMO2 / Fold change vs veh, SLMO2 / RFU, ABCC4 / Fold change vs veh, ABCC4 / RFU, LOC101060439 /// RAP1B / Fold change vs veh, LOC101060439 /// RAP1B / RFU, RFX7 / Fold change vs veh, RFX7 / RFU, GTPBP10 / Fold change vs veh, GTPBP10 / RFU, CNEP1R1 / Fold change vs veh, CNEP1R1 / RFU, BIVM-ERCC5 /// ERCC5 / Fold change vs veh, BIVM-ERCC5 /// ERCC5 / RFU, ILF3 / Fold change vs veh, ILF3 / RFU 11762660_at / Fold change /veh 11762660_at / RFU VCAN (11757783_s_at) / Fold change /veh VCAN (11757783_s_at) / RFU DDX43 (11728927_at) / Fold change /veh DDX43 (11728927_at) / RFU KRT8 (11758188_x_at) / Fold change /veh KRT8 (11758188_x_at) / RFU NKD1 (11759106_at) / Fold change /veh NKD1 (11759106_at) / RFU SRD5A1 (11742802_a_at) / Fold change /veh SRD5A1 (11742802_a_at) / RFU TPSAB1 /// TPSB2 (11721975_s_at) / Fold change /veh TPSAB1 /// TPSB2 (11721975_s_at) / RFU GSTM3 (11746129_a_at) / Fold change /veh GSTM3 (11746129_a_at) / RFU IL23R (11737362_x_at) / Fold change /veh IL23R (11737362_x_at) / RFU TMEM51 (11727254_a_at) / Fold change /veh TMEM51 (11727254_a_at) / RFU PIWIL2 (11732686_x_at) / Fold change /veh PIWIL2 (11732686_x_at) / RFU ORM1 (11744905_x_at) / Fold change /veh ORM1 (11744905_x_at) / RFU CCDC152 (11743942_at) / Fold change /veh CCDC152 (11743942_at) / RFU ECM1 (11717891_a_at) / Fold change /veh ECM1 (11717891_a_at) / RFU IL23R (11748794_a_at) / Fold change /veh IL23R (11748794_a_at) / RFU TNFAIP8L3 (11732012_x_at) / Fold change /veh TNFAIP8L3 (11732012_x_at) / RFU MBOAT4 (11741988_at) / Fold change /veh MBOAT4 (11741988_at) / RFU 11764193_at / Fold change /veh 11764193_at / RFU TMEM53 (11763286_at) / Fold change /veh TMEM53 (11763286_at) / RFU MAGEB2 (11727129_at) / Fold change /veh MAGEB2 (11727129_at) / RFU TMEM200A (11744735_a_at) / Fold change /veh TMEM200A (11744735_a_at) / RFU CCDC152 (11751479_a_at) / Fold change /veh CCDC152 (11751479_a_at) / RFU FAM211A (11726209_a_at) / Fold change /veh FAM211A (11726209_a_at) / RFU RGS16 (11746705_a_at) / Fold change /veh RGS16 (11746705_a_at) / RFU VCAN (11755009_s_at) / Fold change /veh VCAN (11755009_s_at) / RFU RHOB (11743442_s_at) / Fold change /veh RHOB (11743442_s_at) / RFU RGS16 (11720943_a_at) / Fold change /veh RGS16 (11720943_a_at) / RFU RGS16 (11720944_at) / Fold change /veh RGS16 (11720944_at) / RFU, VPS4B / Fold change vs veh, VPS4B / RFU, CREB1 / Fold change vs veh, CREB1 / RFU, DNAJC13 / Fold change vs veh, DNAJC13 / RFU, GNAQ / Fold change vs veh, GNAQ / RFU, CDK5R1 / Fold change vs veh, CDK5R1 / RFU, ZRANB3 / Fold change vs veh, ZRANB3 / RFU, CUL4A / Fold change vs veh, CUL4A / RFU, CCNY / Fold change vs veh, CCNY / RFU, UFL1 / Fold change vs veh, UFL1 / RFU, COG3 / Fold change vs veh, COG3 / RFU, DIAPH2 / Fold change vs veh, DIAPH2 / RFU, SKA2 / Fold change vs veh, SKA2 / RFU, AFF3 / Fold change vs veh, AFF3 / RFU, LMF1 / Fold change vs veh, LMF1 / RFU, IPO11 / Fold change vs veh, IPO11 / RFU, DFFB / Fold change vs veh, DFFB / RFU, FOXP1 / Fold change vs veh, FOXP1 / RFU, CARD8 / Fold change vs veh, CARD8 / RFU, STRN3 / Fold change vs veh, STRN3 / RFU, ADK / Fold change vs veh, ADK / RFU, RASSF2 / Fold change vs veh, RASSF2 / RFU, WIPF1 / Fold change vs veh, WIPF1 / RFU, LARP1B / Fold change vs veh, LARP1B / RFU, RASA1 / Fold change vs veh, RASA1 / RFU, RB1 / Fold change vs veh, RB1 / RFU, PPFIA1 / Fold change vs veh, PPFIA1 / RFU, MAT2A / Fold change vs veh, MAT2A / RFU, CCT5 / Fold change vs veh, CCT5 / RFU, WDR92 / Fold change vs veh, WDR92 / RFU, CUX1 / Fold change vs veh, CUX1 / RFU, TTC7A / Fold change vs veh, TTC7A / RFU, TMEM135 / Fold change vs veh, TMEM135 / RFU, DEPTOR / Fold change vs veh, DEPTOR / RFU, CPM / Fold change vs veh, CPM / RFU, DNAJB6 / Fold change vs veh, DNAJB6 / RFU, CACNA2D3 / Fold change vs veh, CACNA2D3 / RFU, DTX4 / Fold change vs veh, DTX4 / RFU, TFCP2 / Fold change vs veh, TFCP2 / RFU, GMCL1 /// GMCL1P1 / Fold change vs veh, GMCL1 /// GMCL1P1 / RFU, AEBP2 / Fold change vs veh, AEBP2 / RFU, SNHG1 /// SNORD22 /// SNORD25 /// SNORD26 /// SNORD27 /// SNORD28 /// SNORD29 /// SNORD31 / Fold change vs veh, SNHG1 /// SNORD22 /// SNORD25 /// SNORD26 /// SNORD27 /// SNORD28 /// SNORD29 /// SNORD31 / Fold change (Aza/veh), C12orf56 (ProbeSet 11735607_a_at) / Fold change (ACY-1035/veh), C12orf56 (ProbeSet 11735607_a_at) / Fold change (Aza/veh), FGFR1OP (ProbeSet 11751329_s_at) / Fold change (ACY-1035/veh), FGFR1OP (ProbeSet 11751329_s_at) / Fold change (Aza/veh), VPS36 (ProbeSet 11739960_a_at) / Fold change (ACY-1035/veh), VPS36 (ProbeSet 11739960_a_at) / RFU SYPL1 (11715823_x_at) / Fold change /veh SYPL1 (11715823_x_at) / RFU IGFBP7 (11715501_s_at) / Fold change /veh IGFBP7 (11715501_s_at) / RFU REEP3 (11722064_at) / Fold change /veh REEP3 (11722064_at) / RFU IGLL1 (11728026_x_at) / Fold change /veh IGLL1 (11728026_x_at): dose or concentration left out as unconfirmed. To be noted: MV-4-11 cells, 48 hours. Type of experiment: cell-based, human.

As for `Nc1ccc(-c2cccs2)cc1NC(=O)c1ccc2c(c1)cc(C1CC1)n2CCN1CCOCC1` [ACY-1035], the “RFU CAPN14 (11732068_a_at)” value is on record as 10.99 RFU.
